In US20250163051A1, “PYRIMIDO AROMATIC RING COMPOUND AND USE THEREOF IN DRUG” (SUNSHINE LAKE PHARMA CO., LTD., priority 2022, published 2025):

Legend:
[1] = Cell toxicity (Celltiter-Glo) in HEK-Blue hTLR8 cells; details: human
Procedure: Purpose: HEK-Blue™ hTLR7 and HEK-Blue™ hTLR8 cells were used to detect the agonist and cytotoxic activities of compounds against hTLR7 and hTLR8.
The experimental steps were as shown below: • 1) Preparation of compound: The compound was prepared into a 20 mM stock solution with DMSO, and then the stock solution was diluted 3-fold in a gradient and added to a 96-well plate, for a total of 10 concentrations, with duplicate wells for each concentration. For negative control wells, 0.5 μL DMSO was added to each well. The final DMSO concentration was 0.5%. • 2) HEK-Blue™ hTLR7 or HEK-Blue™ hTLR8 cells were suspended in culture medium and then seeded into 96-well plates containing compounds at a cell count of 50,000 per well. The compounds and cells were incubated for 24 h at 37° C., 5% Co2. • 3) QUANTI-Blue was used for the detection solution: to a mixture of 1 mL of QB reagent and 1 mL of QB buffer was added 98 mL of sterile water, the mixture was mixed and dissolved, and then placed at room temperature for 10 min. • 4) Activity test of the compound: 20 μL of the culture supernatant in step 2) was added to each well of a 96-well plate containing 180 μL of QUANTI-Blue detection solution. After incubation at 37° C. for 1 h, the absorbance at 650 nm (OD650) was detected using a multifunctional microplate reader Flextation III. • 5) Detection of cell activity: The chemiluminescent signal (RLU) was detected using the multifunctional microplate reader Flextation III according to the instructions of Celltiter-Glo. • 6) Data analysis
Detection of cell activity: The calculation formula for cell activity % is as follows.
The cell activity % values were analyzed using GraphPad Prism software, and the compound dose-effect curves were fitted to calculate the CC50 values of the compounds.
Cell activity %=RLU compound/RLU DMSO Control*100%

[2] = molecular target: T1, hTLR7 (Homo sapiens, UniProt Q9NYK1); experiment: Agonistic activity on human TLR7 in HEK-Blue hTLR7 cells (QUANTI-Blue); format: cell-based; details: 24 h incubation, OD650, read-out: hTLR 7 EC50
T1 construct: expressed in transfected cells; host or cells: HEK-Blue hTLR7 cells
T1 sequence (Q9NYK1 27-1049): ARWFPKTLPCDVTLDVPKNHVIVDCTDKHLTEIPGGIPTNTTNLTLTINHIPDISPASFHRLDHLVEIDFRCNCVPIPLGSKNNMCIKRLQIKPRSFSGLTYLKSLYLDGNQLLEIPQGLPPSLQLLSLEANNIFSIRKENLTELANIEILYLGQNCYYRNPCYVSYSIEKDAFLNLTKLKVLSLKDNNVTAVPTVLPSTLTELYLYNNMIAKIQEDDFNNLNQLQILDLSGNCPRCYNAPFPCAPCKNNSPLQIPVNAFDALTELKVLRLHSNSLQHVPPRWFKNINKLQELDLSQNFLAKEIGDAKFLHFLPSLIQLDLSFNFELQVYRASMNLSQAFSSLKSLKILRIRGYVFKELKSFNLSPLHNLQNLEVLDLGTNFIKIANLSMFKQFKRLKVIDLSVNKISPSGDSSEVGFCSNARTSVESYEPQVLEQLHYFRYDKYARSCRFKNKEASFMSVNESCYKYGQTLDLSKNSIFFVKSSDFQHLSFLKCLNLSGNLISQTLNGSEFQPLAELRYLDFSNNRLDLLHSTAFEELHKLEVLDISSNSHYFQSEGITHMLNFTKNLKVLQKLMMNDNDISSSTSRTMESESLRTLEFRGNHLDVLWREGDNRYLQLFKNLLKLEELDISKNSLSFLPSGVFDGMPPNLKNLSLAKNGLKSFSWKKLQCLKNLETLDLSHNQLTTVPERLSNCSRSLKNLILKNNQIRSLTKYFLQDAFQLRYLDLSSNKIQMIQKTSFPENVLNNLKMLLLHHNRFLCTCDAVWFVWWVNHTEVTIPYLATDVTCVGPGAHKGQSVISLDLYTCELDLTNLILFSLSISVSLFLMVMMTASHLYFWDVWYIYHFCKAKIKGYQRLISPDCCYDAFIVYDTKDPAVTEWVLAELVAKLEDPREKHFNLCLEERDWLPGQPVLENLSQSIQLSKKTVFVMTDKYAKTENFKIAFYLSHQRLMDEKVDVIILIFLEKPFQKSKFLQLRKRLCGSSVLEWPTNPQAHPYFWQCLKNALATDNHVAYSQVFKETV

[3] = molecular target: T2, hTLR8 (Homo sapiens, UniProt Q9NR97); experiment: Agonistic activity on human TLR8 in HEK-Blue hTLR8 cells (QUANTI-Blue); format: cell-based; details: 24 h incubation, OD650, read-out: hTLR 8 EC50
T2 construct: expressed in transfected cells; host or cells: HEK-Blue hTLR8 cells
T2 sequence (Q9NR97 27-1041): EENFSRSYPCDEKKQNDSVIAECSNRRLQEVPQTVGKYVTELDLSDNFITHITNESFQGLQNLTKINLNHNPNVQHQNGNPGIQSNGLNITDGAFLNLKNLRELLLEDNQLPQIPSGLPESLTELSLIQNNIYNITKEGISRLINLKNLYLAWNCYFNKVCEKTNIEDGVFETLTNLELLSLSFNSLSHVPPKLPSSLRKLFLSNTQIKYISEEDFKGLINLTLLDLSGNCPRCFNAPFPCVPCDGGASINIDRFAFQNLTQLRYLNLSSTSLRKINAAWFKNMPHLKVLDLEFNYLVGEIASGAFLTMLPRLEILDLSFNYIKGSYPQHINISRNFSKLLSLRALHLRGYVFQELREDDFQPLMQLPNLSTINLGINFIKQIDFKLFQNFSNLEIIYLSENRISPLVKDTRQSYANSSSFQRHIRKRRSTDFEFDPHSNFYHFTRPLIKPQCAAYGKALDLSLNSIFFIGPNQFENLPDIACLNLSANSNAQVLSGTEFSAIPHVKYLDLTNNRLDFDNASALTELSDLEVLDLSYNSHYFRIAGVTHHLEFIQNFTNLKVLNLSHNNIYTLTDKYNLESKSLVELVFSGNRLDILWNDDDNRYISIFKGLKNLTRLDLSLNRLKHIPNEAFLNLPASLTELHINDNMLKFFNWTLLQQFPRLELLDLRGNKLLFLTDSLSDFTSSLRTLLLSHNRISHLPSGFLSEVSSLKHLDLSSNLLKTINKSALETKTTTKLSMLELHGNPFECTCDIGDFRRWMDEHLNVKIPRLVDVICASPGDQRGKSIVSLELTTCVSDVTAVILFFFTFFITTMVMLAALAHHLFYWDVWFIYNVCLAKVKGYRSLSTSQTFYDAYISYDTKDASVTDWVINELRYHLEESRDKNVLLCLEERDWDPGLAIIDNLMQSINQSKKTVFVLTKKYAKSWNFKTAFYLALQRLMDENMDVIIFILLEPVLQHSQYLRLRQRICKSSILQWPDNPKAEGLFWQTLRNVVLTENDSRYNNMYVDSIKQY

Row | Structure (SMILES) | CC50 at 24 h [1] [µM] | EC50 [2] [µM] | EC50 [3] [µM]
1 | CCCC[C@](C)(CO)Nc1nc(N)nc2cc(-c3cc(=O)[nH]cc3COC)ccc12 [Example 68, (R)-4-(2-Amino-4-((1-hydroxy-2-methylhexan-2-yl)amino)quinazolin-7-yl)-5-(methoxymethyl) pyridin-2(1H)-one] | > 100 | 14.2 | 0.042
2 | CCCC[C@](C)(CO)Nc1nc(N)nc2cc(-c3cc(=O)[nH]cc3CSC)cnc12 [Example 52, (R)-4-(2-Amino-4-((1-hydroxy-2-methylhexan-2-yl)amino)pyrido[3,2-d]pyrimidin-7-yl)-5-((methylthio)methyl)pyridin-2(1H)-one] | > 100 | 18.4 | 0.03
3 | C=CCCN(Cc1c[nH]c(=O)cc1-c1cnc2c(N[C@@](C)(CO)CCCC)nc(N)nc2c1)C(C)C [Example 19] | > 100 | > 100 | 0.255
4 | CCCC[C@](C)(CO)Nc1nc(N)nc2cc(-c3cc(=S)[nH]cc3CN(C)CCOC)ccc12 [Example 65, (R)-4-(2-Amino-4-((1-hydroxy-2-methylhexan-2-yl)amino)quinazolin-7-yl)-5-(((2-methoxyethyl)(methyl)amino)methyl)pyridine-2(1H)-thione] | > 100 | > 100 | 0.212
5 | C=CCCN(C)Cc1cn(C)c(=O)cc1-c1cnc2c(N[C@](C)(CCCC)CNC(=O)c3cnn(C)c3)nc(N)nc2c1 [Example 45] | > 100 | > 100 | 0.097
6 | C=CCCN(CCC=C)Cc1c[nH]c(=O)cc1-c1cnc2c(N[C@@](C)(CO)CCCC)nc(N)nc2c1 [Example 13] | 97.3 | 81.5 | 1.73
7 | C=CCCN(C)Cc1c[nH]c(=O)cc1-c1cnc2c(N[C@](C)(CCCC)CNC(=O)c3cnn(C)c3)nc(N)nc2c1 [Example 44, (R)—N-(2-((2-Amino-7-(5-((but-3-en-1-yl(methyl)amino)methyl)-2-oxo-1,2-dihydropyridin-4-yl)pyrido[3,2-d]pyrimidin-4-yl)amino)-2-methylhexyl)-1-methyl-1H-pyrazole-4-carboxamide] | > 100 | > 100 | 0.166
8 | CCCC[C@](C)(CO)Nc1nc(N)nc2cc(-c3cc(=S)[nH]cc3CN(C)CCOC)cnc12 [Example 66, (R)-4-(2-Amino-4-((1-hydroxy-2-methylhexan-2-yl)amino)pyrido[3,2-d]pyrimidin-7-yl)-5-(((2-methoxyethyl)(methyl)amino)methyl)pyridine-2(1H)-thione] | > 100 | > 100 | 0.183
9 | CCCC[C@](C)(CO)Nc1nc(N)nc2cc(-c3cc(=O)[nH]cc3CN3CCSCC3)cnc12 [Example 25] | > 100 | > 100 | 0.13
10 | C=CCC(=O)N(C)Cc1c[nH]c(=O)cc1-c1cnc2c(N[C@@](C)(CO)CCCC)nc(N)nc2c1 [Example 40, (R)—N-((4-(2-Amino-4-((1-hydroxy-2-methylhexan-2-yl)amino)pyrido[3,2-d]pyrimidin-7-yl)-6-oxo-1,6-dihydropyridin-3-yl)methyl)-N-methylbut-3-enamide] | > 100 | > 100 | 1.52
11 | CCCCN(CCCC)Cc1c[nH]c(=O)cc1-c1cnc2c(N[C@@](C)(CO)CCCC)nc(N)nc2c1 [Example 14] | > 100 | > 100 | 0.288
12 | C=CCCN(C)Cc1cn(C)c(=O)cc1-c1ccc2c(N[C@](C)(CCCC)CNC(=O)c3cnn(C)c3)nc(N)nc2c1 [Example 46] | > 100 | > 100 | 0.569
13 | CCCC[C@](C)(CO)Nc1nc(N)nc2cc(-c3cc(=O)[nH]cc3CN(C)C)ccc12 [Example 67, (R)-4-(2-Amino-4-((1-hydroxy-2-methylhexan-2-yl)amino)quinazolin-7-yl)-5-((dimethylamino)methyl)pyridin-2(1H)-one] | > 100 | > 100 | 0.056
14 | C=CCCOCc1c[nH]c(=O)cc1-c1cnc2c(N[C@@](C)(CO)CCCC)nc(N)nc2c1 [Example 41, (R)-4-(2-Amino-4-((1-hydroxy-2-methylhexan-2-yl)amino)pyrido[3,2-d]pyrimidin-7-yl)-5-((but-3-en-1-yloxy)methyl)pyridin-2(1H)-one] | > 100 | 29.9 | 0.354
15 | CCCC[C@](C)(CO)Nc1nc(N)nc2cc(-c3cc(=O)[nH]cc3CN(C)CCO)ccc12 [Example 60, (R)-4-(2-Amino-4-((1-hydroxy-2-methylhexan-2-yl)amino)quinazolin-7-yl)-5-(((2-hydroxyethyl)(methyl)amino)methyl)pyridin-2(1H)-one] | > 100 | > 100 | 0.292
16 | CC#CCN(C)Cc1c[nH]c(=O)cc1-c1cnc2c(N[C@@](C)(CO)CCCC)nc(N)nc2c1 [Example 27] | > 100 | > 100 | 4.25
17 | CCCCNCc1c[nH]c(=O)cc1-c1ccc2c(N[C@@](C)(CO)CCCC)nc(N)nc2c1 [Example 58, (R)-4-(2-Amino-4-((1-hydroxy-2-methylhexan-2-yl)amino)quinazolin-7-yl)-5-((butylamino)methyl)pyridin-2(1H)-one] | > 100 | > 100 | 0.918
18 | CCCCNCc1cn(C)c(=O)cc1-c1ccc2c(N[C@@](C)(CO)CCCC)nc(N)nc2c1 [Example 62, (R)-4-(2-Amino-4-((1-hydroxy-2-methylhexan-2-yl)amino)quinazolin-7-yl)-5-((butylamino)methyl)-1-methylpyridin-2(1H)-one] | > 100 | > 100 | 0.198
19 | CCCC[C@](C)(CO)Nc1nc(N)nc2cc(-c3cc(=O)[nH]cc3CN(C)CCNC)cnc12 [Example 20] | > 100 | > 100 | 2.85
